Source: patent US20250154169A1, “COMPOUNDS AND METHODS FOR MODULATING SPLICING” (REMIX THERAPEUTICS INC., priority 2021, published 2025)
Structures can show the parent of a compound that is named as a salt. Where two headings read alike, the source gives them in different places.

How the values were obtained:
Target C = test: Protein abundance, HiBit-assay system (Promega), Target C; type: cell-based, human; details: Table 6; HiBiT-modified K562 cells, 24 hours
Experimental: Compounds described herein were used to screen for effects on quantitative protein abundance using a HiBit assay system (Promega). Quantitative protein abundance was determined by measuring the protein levels of HiBit-tagged protein targets expressed in cell culture via luminescence using the Nano-Glo HiBiT Lytic Detection System, which uses a split complementation assay format to reconstitute NanoBiT enzyme to generate a luminescent signal. A protein abundance assay was developed such that endogenous protein targets could be modified with the HiBiT peptide tag and their abundance could be assessed after compound treatment. Briefly, K562 cell lines containing a HiBiT-modification were treated with various compounds described herein (e.g., compounds of Formulas (I) or (II)). After treatment for 24 hours, the protein abundance of a specific target was determined by measuring luminescence.
Cells were maintained in EIDM with 10% FBS. Before the assay, cells were diluted with […] growth media (EIDM+1% FBS media) and were seeded in a 384-well plate at a density of 10000 cells/well (for each cell line listed in Table 5). Each compound was prepared as a 10-point 3-fold serial dilution in DMSO with the top dose at a final concentration of 10 μM in the well. Unmodified K562 cells were added at the previously specified density with DMSO to serve as an assay baseline and positive control (PC) and DMSO only with the respective modified cell lines was added to the negative control (NC) columns. Final DMSO concentration was kept at or below 0.25%. Treated cell plates were placed in an incubator at 37° C. with 5% CO2 for 24 hours. After 24 hours, 25 μL of Complete HiBit Lytic reagent was added to each well at room temperature (e.g. one plate requiring 10 mL Lytic Buffer, 100 μL LgBiT Protein, 200 μL Lytic Substrate), shaken for 5 minutes at 600 RPM, then left to sit for 10 minutes for signal to stabilize before reading on a Spark Cyto plate reader (Tecan) with a 500 ms measurement time.
To determine compound effects on protein abundance of each target in Table 6, the percent response for each respective cell line was calculated at each compound concentration as follows:
For the normalized response at each concentration, a four-parameter logistical regression was fit to the data and the response was interpolated at the 50% value to determine a concentration for protein abundance at […] the untreated control.

HTT mRNA = test: Splicing RT-qPCR assay, HTT canonical (CJ) and alternative (AJ) junction mRNA; type: cell-based, human; details: Homo sapiens, A673 or K562 cells, 24 hours compound treatment; for IC50: read-out: HTT CJ (IC50, decrease in canonical junction mRNA); for AC50: read-out: HTT AJ (AC50, increase in alternative junction mRNA)
How it was run: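 Read-out is the abundance of canonical-junction versus new alternative-exon-junction mRNA, determined by real-time qPCR after cDNA synthesis and normalized to a housekeeping gene. It is measured in A673 or K562 cells exposed to compounds for 24 h, top dose 10 uM.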

| SMILES | IC50 (Target C) | IC50 (HTT mRNA; 24 h) | AC50 (HTT mRNA) | IC50 (HTT mRNA) |
| --- | --- | --- | --- | --- |
| Cc1cn2nc(NC(=O)c3ccc(C4CCNCC4)c4cc(C)oc34)cc(C)c2n1 [Compound 118] | 1000 to 10000 nM |  |  |  |
| Cc1cn2nc(NC(=O)c3ccc(C4CCNCC4)c4ccoc34)cc(C)c2n1 [Compound 119] | > 10000 nM | 1000 to 10000 nM | > 10000 nM |  |
| Cc1cn2cc(NC(=O)c3ccc(N4CCNCC4)c4nc(C)oc34)cc(F)c2n1 [Compound 140] | 1000 to 10000 nM |  |  |  |
| Cc1cn2cc(NC(=O)c3ccc(N4CCNCC4)c4oc(C)nc34)cc(F)c2n1 [Compound 141] | 1000 to 10000 nM | < 100 nM | < 100 nM |  |
| Cc1cn2cc(NC(=O)c3ccc(N4CCNCC4)c4cc(C)oc34)cc(F)c2n1 [Compound 142] | 1000 to 10000 nM | 1000 to 10000 nM | 1000 to 10000 nM |  |
| Cc1cn2cc(NC(=O)c3ccc(N4CCNCC4)c4cn(C)nc34)cc(F)c2n1 [Compound 143, N-{8-fluoro-2-methylimidazo[1,2-a]pyridin-6-yl}-2-methyl-4-(piperazin-1-yl) indazole-7-carboxamide] | < 100 nM |  |  |  |
| Cc1cn2cc(NC(=O)c3ccc(C4CCNCC4)c4cc(C)oc34)cc(F)c2n1 [Compound 145] | 1000 to 10000 nM | 1000 to 10000 nM | 1000 to 10000 nM |  |
| Cc1cn2nc(NC(=O)c3ccc(N4CCNCC4)c4cc(C)oc34)cc(C)c2n1 [Compound 148] | 1000 to 10000 nM | 1000 to 10000 nM | 1000 to 10000 nM |  |
| Cc1cn2cc(NC(=O)c3ccc(C4CCNCC4)c4ccoc34)cc(F)c2n1 [Compound 149] | 1000 to 10000 nM | 1000 to 10000 nM | 1000 to 10000 nM |  |
| Cc1cn2cc(NC(=O)c3ccc(N4CCN(C)CC4)c4cc(C)oc34)cc(F)c2n1 [Compound 189] | 1000 to 10000 nM | 1000 to 10000 nM | 1000 to 10000 nM |  |
| Cc1cn2cc(NC(=O)c3ccc(N4CCNC(C)C4)c4cc(C)oc34)cc(F)c2n1 (stereo not shown) [Compound 190] | 1000 to 10000 nM | 100 to 1000 nM | 100 to 1000 nM |  |
| Cc1cn2cc(NC(=O)c3ccc(N4CCN(C)C(C)C4)c4cc(C)oc34)cc(F)c2n1 (stereo not shown) [Compound 191] | 1000 to 10000 nM | 100 to 1000 nM | 1000 to 10000 nM |  |
| CCC1CN(c2ccc(C(=O)Nc3cc(F)c4nc(C)cn4c3)c3oc(C)cc23)CCN1 (stereo not shown) [Compound 192] | 1000 to 10000 nM | 1000 to 10000 nM | 1000 to 10000 nM |  |
| Cc1cn2cc(NC(=O)c3ccc(N4CCNC(C)(C)C4)c4cc(C)oc34)cc(F)c2n1 [Compound 193] | > 10000 nM | 1000 to 10000 nM | 1000 to 10000 nM |  |
| Cc1cn2cc(NC(=O)c3ccc(N4CCNC5(CC5)C4)c4cc(C)oc34)cc(F)c2n1 [Compound 194] | > 10000 nM |  |  |  |
| Cc1cn2cc(NC(=O)c3ccc(N4CC(C)(C)NC(C)(C)C4)c4cc(C)oc34)cc(F)c2n1 [Compound 195] | 1000 to 10000 nM | > 10000 nM | > 10000 nM |  |

| SMILES | IC50 (Target C) | IC50 (HTT mRNA; 24 h) | AC50 (HTT mRNA) | IC50 (HTT mRNA) |
| --- | --- | --- | --- | --- |
| CCNC1CCN(c2ccc(C(=O)Nc3cc(F)c4nc(C)cn4c3)c3oc(C)cc23)CC1 [Compound 196] | 1000 to 10000 nM |  |  |  |
| Cc1cn2cc(NC(=O)c3ccc(N4CCC(NC(C)(C)C)CC4)c4cc(C)oc34)cc(F)c2n1 [Compound 197] | > 10000 nM | > 10000 nM | > 10000 nM |  |
| CC1=CC2C(N3CCC(N(C)C)CC3)=CC=C(C(=O)Nc3cc(F)c4nc(C)cn4c3)C2O1 (stereo not shown) [Compound 198] | > 10000 nM |  |  |  |
| Cc1cn2cc(NC(=O)c3ccc(N4CCN5CCCC5C4)c4cc(C)oc34)cc(F)c2n1 (stereo not shown) [Compound 199] | > 10000 nM | 100 to 1000 nM | 100 to 1000 nM |  |
| Cc1cn2cc(NC(=O)c3ccc(C4CCNCC4)c4cn(C)nc34)cc(F)c2n1 [Compound 208] | 100 to 1000 nM |  |  |  |
| Cc1cc2c(N3CCNCC3)ccc(C(=O)Nc3cc(F)c4cn(C)nc4c3)c2o1 [Compound 217] | > 10000 nM | > 10000 nM | > 10000 nM |  |
| CCn1cc2c(N3CC[C@@H](NC)C3)ccc(C(=O)Nc3cc(Cl)c4nc(C)cn4c3)c2n1 [Compound 556, N-{8-chloro-2-methylimidazo[1,2-a]pyridin-6-yl}-2-ethyl-4-[(3R)-3-(methylamino)pyrrolidin-1-yl]indazole-7-carboxamide] | 1000 to 10000 nM | > 10000 nM | > 10000 nM |  |
| CCn1cc2c(N3CCC(N)(CC)CC3)cc(F)c(C(=O)Nc3cc(F)c4nc(C)cn4c3)c2n1 [Compound 557, 4-(4-amino-4-ethylpiperidin-1-yl)-2-ethyl-6-fluoro-N-{8-fluoro-2-methylimidazo[1,2-a]pyridin-6-yl}indazole-7-carboxamide] | 100 to 1000 nM | 100 to 1000 nM | 100 to 1000 nM |  |
| CCn1cc2c(N3CCC(N[C@H]4C[C@@H](O)C4)CC3)ccc(C(=O)Nc3cc(F)c4nc(C)cn4c3)c2n1 [Compound 559, 2-ethyl-N-{8-fluoro-2-methylimidazo[1,2-a]pyridin-6-yl}-4-(4-{[(1s,3s)-3-hydroxycyclobutyl]amino}piperidin-1-yl) indazole-7-carboxamide] | 100 to 1000 nM | 1000 to 10000 nM | 1000 to 10000 nM |  |
| CCn1cc2c(N3CCC(N[C@H]4C[C@H](O)C4)CC3)ccc(C(=O)Nc3cc(F)c4nc(C)cn4c3)c2n1 [Compound 560, 2-ethyl-N-{8-fluoro-2-methylimidazo[1,2-a]pyridin-6-yl}-4-(4-{[(1r,3r)-3-hydroxycyclobutyl]amino}piperidin-1-yl) indazole-7-carboxamide] | 1000 to 10000 nM | 1000 to 10000 nM | 1000 to 10000 nM |  |
| Cc1cn2cc(NC(=O)c3ccc(N4CC[C@@H](N5CCNCC5)C4)c4cn(C)nc34)cc(F)c2n1 [Compound 562, N-{8-fluoro-2-methylimidazo[1,2-a]pyridin-6-yl}-2-methyl-4-[(3R)-3-(piperazin-1-yl)pyrrolidin-1-yl]indazole-7-carboxamide hydrochloride] | > 10000 nM | > 10000 nM | > 10000 nM |  |
| Cc1cn2cc(NC(=O)c3ccc(N4CC5NC5C4)c4cn(C)nc34)cc(F)c2n1 (stereo not shown) [Compound 563, 4-{3,6-diazabicyclo[3.1.0]hexan-3-yl}-N-{8-fluoro-2-methylimidazo[1,2-a]pyridin-6-yl}-2-methylindazole-7-carboxamide] | 100 to 1000 nM |  | 100 to 1000 nM | 100 to 1000 nM |
| Cc1cn2cc(NC(=O)c3ccc(N4C5CNCC54)c4cn(C)nc34)cc(F)c2n1 (stereo not shown) [Compound 564, 4-{3,6-diazabicyclo[3.1.0]hexan-6-yl}-N-{8-fluoro-2-methylimidazo[1,2-a]pyridin-6-yl}-2-methylindazole-7-carboxamide] | 100 to 1000 nM |  | 100 to 1000 nM | 100 to 1000 nM |
| CCn1cc2c(N3CCNCC3)ccc(C(=O)Nc3cc(F)c4nc(C)c(F)n4c3)c2n1 [Compound 565, N-{3,8-difluoro-2-methylimidazo[1,2-a]pyridin-6-yl}-2-ethyl-4-(piperazin-1-yl) indazole-7-carboxamide; trifluoroacetic acid] | > 10000 nM | > 10000 nM | > 10000 nM |  |
| CCn1cc2c(N3CCNCC3)ccc(C(=O)Nc3cn4cc(C)nc4c(Oc4ccccc4)n3)c2n1 [Compound 566, 2-ethyl-N-{2-methyl-8-phenoxyimidazo[1,2-a]pyrazin-6-yl}-4-(piperazin-1-yl) indazole-7-carboxamide] | 1000 to 10000 nM | 1000 to 10000 nM | 1000 to 10000 nM |  |
